From patent publication US9974776B2, “Estrogen receptor beta agonists for use in treating mesothelioma” (Karo Pharma AB, priority 2013, dated 2018)
“Also recorded” adds a separate entry of the source.

Assays:
MET5A cells = experiment: Proliferation assay in non-malignant mesothelial MET5A cells; type: cell-based
Experimental: (§1) Cells were seeded at a density of 10×10^4 cells/well in 6-well plates in RPMI medium supplemented with 10% FBS, 100 μg/ml streptomycin and 10 μg/ml penicillin and incubated over-night at 37° C. in a humidified environment containing 5% CO2 to allow adherence. Following treatment cells were trypsinized and stained with Trypan blue. The number of cells considered viable (unstained cells) was counted in a Bürker haemocytometer within 5 minutes after staining.
(§2) Cell cultures were pretreated with Compound (I) for 1-16 hours (depending on experiment) followed by wash-off and then replenished with normal growth medium±cisplatin, pemetrexed or cisplatin/pemetrexed. Total incubation time was 24-72 hours (depending on experiment). Control cultures were maintained in normal growth medium without added drug. The number of viable cells was determined as described for the proliferation assay.

H2596 cells = experiment: Proliferation assay in H2596 cells; type: cell-based; details: 10 nM single agent, 24 and 48 hours; very low ERβ
Experimental: as §1

MSTO-211H cells = experiment: Proliferation assay in ERβ negative MSTO-211H cells; type: cell-based; details: 10 nM single agent, 24 and 48 hours
Experimental: as §1

[1] = Treatment toxicity by mice body weights; type: in vivo; details: 10 mg/kg/day s.c. during drug administration
Experimental: Animals. CD1 nude mice (males, 6 weeks old; Charles River, Calco, Italy) received intraperitoneal (i.p.) injections of 2×10^6 luciferase transduced REN cells in 0.5 mL of RPMI medium. After anesthetization and i.p. injections of 0.3 mL of 15 mg/mL D-luciferin, tumor dimension and localization of luminescent cells was monitored using the In Vivo Imaging System (IVIS) series (Xenogen Corporation, Hopkinton, Mass., USA). Regions of interest were identified around the tumor sites and were quantified as total photon counts using Living Image software (Xenogen Corporation). The values of tumor sizes were obtained, subtracting luminescence signals of each weekly measurement by the average of all animals within a treatment group on the 15th day after inoculation (day when treatment started). To evaluate treatment toxicity, mice were weighed at the start and end of treatments. Mice were killed and necropsied after 20 days of treatment. In vivo experiments were approved by Istituto Scientifico Tumori (Genoa, Italy) ethical committee and conform to the relevant regulatory standards. Mice were maintained and handled under aseptic conditions, and were allowed access to food and water ad libitum.

PARP1 cleavage [2] = experiment: Western blot of PARP1 cleavage in REN cells; type: cell-based, human
Experimental: (§3) Cells were extracted with 1% NP-40 lysis buffer (1% NP-40, 150 mM NaCl, 50 mM Tris-HCl pH 8.5 mM EDTA, 10 mM NaF, 10 mM Na4P2O7, 0.4 mM Na3VO4) with freshly added protease inhibitors (10 μg/ml leupeptin, 4 μg/ml pepstatin and 0.1 Unit/ml aprotinin). For protein extraction from tissues, ˜100 mg of each sample were homogenized, using a Potter-Elvehjem homogenizer device, in 1% NP-40 lysis buffer. Lysates were centrifuged at 13.000×g for 10 minutes at 4° C. and the supernatants were collected and assayed for protein concentration with the Bio-Rad protein assay method.
(§4) Proteins were separated by SDS-PAGE under reducing conditions. Following SDS-PAGE, proteins were transferred to nitrocellulose, reacted with specific antibodies and then detected with peroxidase-conjugate secondary antibodies and chemioluminescent ECL reagent. Densitometric analysis was performed using the GS 250 Molecular Image (Bio-Rad).
Levels of PARP1, cleaved PARP1, AKT and phosphorylated AKT in REN cells treated for 24 hours with cisplatin (25, 50 and 100 μM) or pre-treated 2 hours with Compound (I) (10 nM) followed by wash-off and continued growth in normal medium±cisplatin (25, 50 and 100 μM), for an additional 24 hours were also determined by Western blot analysis and relative densitometry. Total AKT and Tubulin staining were used for normalization. PARP1 cleavage was analysed as it is an indicator of apoptotic cell death. As increased AKT activity has been implicated in the control of proliferation, apoptosis and cisplatin resistance (Pinton G., et al, PLoS One (2012) 7:e36856), AKT activation status following different treatments was also analysed.

AKT phosphorylation [3] = experiment: Western blot of AKT phosphorylation in MET5A cells; type: cell-based; details: 10 nM 2 hours pre-treatment
Experimental: as §3, §4
Levels of PARP1, cleaved PARP1, AKT and phosphorylated AKT in the MET5A cell cultures at 24 hours were also determined by Western blot analysis and relative densitometry.

MMP cells = experiment: Proliferation assay (wash-off experiment) in MMP cells; type: cell-based, human; details: 10 nM 2 hours, 50 μM cisplatin 24 hours
Experimental: as §1, §2
50 μM cisplatin was added to MMP cell cultures pre-treated for 2 hours with 10 nM Compound (I) (wash-off experiment). The number of viable cells at 24 hours was determined as described for the proliferation assay above. Control cultures were maintained in normal growth medium; growth medium plus Compound (I) (10 nM); and growth medium plus cisplatin (50 μM).

PARP1 cleavage [4] = experiment: Western blot of PARP1 cleavage in MMP cells; type: cell-based, human; details: 10 nM two hours, wash-off, 50 μM cisplatin
Experimental: as §3, §4
(§5) Levels of PARP1, cleaved PARP1, AKT and phosphorylated AKT in the MMP cell cultures at 24 hours were also determined by Western blot analysis.

AKT phosphorylation [5] = experiment: Western blot of AKT phosphorylation in MMP cells; type: cell-based, human; details: 10 nM 2 hours pre-treatment, ± 50 μM cisplatin
Experimental: as §3, §4, §5

Cc1noc(C)c1-c1c(/C(N)=N/O)c2ccccc2n1-c1ccc(O)cc1 [Compound (I)]
effect on cisplatin toxicity in MET5A cells (MET5A cells; 10 nM 2 hours pre-treatment, wash-off, cisplatin 25, 50, 100 μM 24 hours): protective effect was observed when Compound (I) pre-treatment was combined with low doses of cisplatin; also recorded: diminished and/or counteracted the toxicity of cisplatin
MET5A cell proliferation or viability, alone (MET5A cells; 10 nM 2 hours, wash-off, normal medium 24 hours): no effect on MET5A cell proliferation or viability
inhibition of proliferation, MET5A cells (MET5A cells; 10 nM single agent, 24 and 48 hours, high endogenous ERβ): no inhibitory effect was observed
inhibition of proliferation, H2596 cells (H2596 cells): weak response
inhibition of proliferation, MSTO-211H cells (MSTO-211H cells): no response
toxicity assessed by changes of mice body weights [1]: not to be toxic
appearance of cleaved PARP1, pre-treatment then cisplatin (PARP1 cleavage [2]; 10 nM 2 hours prior to cisplatin (25, 50, 100 μM) 24 hours): greatest effect on the appearance of cleaved PARP1
PARP1 cleavage, single agent (PARP1 cleavage [2]; agent alone): neither cisplatin nor Compound (I) alone resulted in significant PARP1 cleavage
basal pAKT levels in MET5A control cells (AKT phosphorylation [3]; no cisplatin): no effect on basal pAKT levels
effect on cisplatin-mediated inhibition of pAKT in MET5A cells (AKT phosphorylation [3]; then cisplatin): antagonized the cisplatin-mediated inhibition of pAKT
anti-proliferative effect in MMP cells, pre-treatment then cisplatin (MMP cells): enhanced anti-proliferative effect of cisplatin was observed; also recorded: synergistic growth inhibition compared to Compound (I) or cisplatin alone
level of cleaved PARP1 in MMP cells (PARP1 cleavage [4]): most significant increase in the level of cleaved PARP1
AKT phosphorylation in MMP cells (AKT phosphorylation [5]): significantly reduced AKT phosphorylation both in the absence and in the presence of cisplatin
